US7482008B1, “Human T cell reactive feline protein (TRFP) isolated from house dust and uses therefor” (Merck Patent GmbH, priority 1989, dated 2009)

Legend:
[1] = system: PBMC from cat-allergic patients; assay: IL-2, IFN-gamma and IL-4 measurements by PCR in primary 36 hour PBMC culture; type: cell-based, human; conditions: Patient 409 primary 36 hour culture; for STIMULATION INDEX IFN-γ / STIMULATION INDEX IL-4: PCR, vs medium control
Method: Peripheral blood mononuclear cells (PBMC) were purified from cat-allergic patients as described in Example 5. Five×10^6 PBMC were cultured at 2×10^6/ml for 36 hours in the presence of medium only, 20 μg purified TRFP/ml or 50 μg peptide/ml. The cells were then washed two times with phosphate buffered saline (PBS, pH 7.2) and lysed with 2 ml […] guanidinium isothiocyanate, 0.5% Sarkosyl, 5 mM sodium citrate, 0.1 M 2-mercaptoethanol, pH 7.0. The lysate was then forced through a 26 gauge needle to shear genomic DNA, and was layered onto a 2 ml cushion of 5.7 M CsCl, 0.01 M EDTA, pH 7.5 in diethylpyrocarbonate (DEPC)-treated water. The lysate was centrifuged at 35,000 RPM in a Beckman SW41 rotor for 18 hours at 20° C. The RNA pellet was resuspended in 0.4 ml TE (10 mM Tris, 1 mM EDTA), pH 7.5, 0.1% SDS, and then extracted three times with 0.5 ml phenol/0.2 ml chloroform. The RNA was then precipitated on dry ice with 2.5 volumes ice-cold ethanol, 1/10 volume 3 M sodium acetate, pH 5.2 in DEPC-treated water, rinsed once with 70% ethanol in DEPC-treated water, and dried. The RNA pellet was resuspended in 2 μl TE., pH 7.5 in DEPC-treated water.
Total cellular RNA was converted to cDNA using the Superscript kit (BRL, Bethesda, Md.). Two μl of RNA were added to one μl oligo (dT)12-18 (500 μg/ml) and 9 μl water. The sample was heated to 70° C. for 10 minutes and ice quenched. Four μl 5× buffer were added to the sample along with 2 μl 0.1 M DTT and 1 μl dNTP mix (10 mM each, dATP, dCTP, dGTP, dTTP). One μl reverse transcriptase (200U) was added and the reaction was carried out for one hour at 42° C. The reaction was terminated by incubation of the sample at 90° C. for five minutes and stored at −80° C.
Ten-fold serial dilutions of T cell cDNA in 10 mM TRIS, pH 7.5 were amplified using the standard kit and protocol recommended by Perkin Elmer-Cetus (Redwood City, Calif.). Each sample received 26.65 μl water, 5 μl ×PCR buffer, 8 μl of dNTP mix (1.25 mM each of dATP, dCTP, dGTP and dTTP), 0.1 μl alpha 32P-dCTP (3000 Ci/mmol), 0.25 μl AmpliTaq, 5 μl cDNA and 5 μl cytokine-specific 5′ and 3′ primers (20 micromolar). The primers used for most cytokines and the beta-actin control were purchased from Clontech (Redwood City, Calif.). The human IL-4 primers were purchased from Research Genetics (Huntsville, Ala.) and had the following sequences: 5′ hIL-4 primer (SEQ. ID. NO: 58):
The PCR products were extracted once with 25 μl chloroform and 25 μl of each sample were then electrophoresed on an 8% polyacrylamide gel at 250 V. The gel was dried and exposed to pre-flashed x-ray film. Several exposures of each gel were then scanned using a Shimadzu flying spot laser densitometer. Values on the linear portion of the titrations were then compared to the medium control values to obtain a stimulation index for each sample. Primers for beta-actin were included as a control for general cDNA levels in each sample. Where the medium control values are not detectable, the lowest measurable response was set at 1.00. In other experiments, levels of cytokine cDNA can be compared directly with previously amplified cytokine specific cDNAs as standards. Thus, absolute levels of particular cytokine cDNAs can be compared from one sample to another and from one experiment to another. In this experiment, IL-2, IL-4 and IFN-gamma levels were measured. As shown, in this particular cat-allergic patient, peptides such as Fel 18 generate more IL-4 than certain other TRFP-derived peptides (Fel 14 and Fel 17). This analysis will be expanded to studies of other cytokines involved in the generation of allergic responses, such as IL-5, IL-8, IL-9, TGF-beta. Samples of cDNA from each treatment can also be saved for later analysis once additional cytokines are identified and sequenced. Peptides generating a spectrum of cytokines favorable for the generation of allergic responses can be avoided for therapeutic use in the treatment of cat allergy. […]

[2] = system: human IgE; assay: ELISA of human IgE binding, plasma from patient #669; conditions: patient #669 plasma
Method: Corning assay plates (#25882-96) were coated with 10 μg/ml of each coating antigen (i.e., TRFP, chain 1 (recombinant chain 1 of TRFP), chain 2 (recombinant chain 2 of TRFP), peptide XYZ, peptide XZY, peptide YXZ, peptide YZX, peptide ZXY and peptide ZYX) listed in FIG. 34 at 50 μl/well and incubated overnight at 4° C. The coating antigens were removed and the wells were blocked with 0.5% gelatin in PBS, 200 μl/well for 2 hours at room temperature. Plasma from patient #669 was serially diluted with PBS-Tween 20 (PBS with 0.05% nonionic detergent Tween-20 Sigma, St. Louis Mo.) and 100 μl/well was added and incubated overnight at 4° C. (plasma dilutions are tested in duplicate). The second antibody (biotinylated goat anti-Human IgE, 1:1000, Kirkegaard & Perry Laboratories Inc. Gaithersburg, Md.), was added at 100 μl/well for one hour at room temperature. This solution was removed and streptavidin-HRPO, 1:10,000 (Southern Biotechnology Associates, Inc., Birmingham, Ala.) was then added at 100 μl/well for one hour at room temperature (all wells were washed three times with PBS-Tween between each incubation step). TMB Membrane Peroxidase Substrate system (Kirkegaard & Perry Laboratories) was freshly mixed, and added at 100 μl/well. The color was allowed to develop for 2-5 minutes. The reaction was stopped by the addition of 100 μl/well of 1M phosphoric acid. Plates were read on a Microplate EL 310 Autoreader (Biotek Instruments, Winooski, Vt.) with a 450 nm filter. The absorbance levels of duplicate wells were averaged.

Row | Substance | RATIO IFN/IL-4 [1] | STIMULATION INDEX IFN-γ [1] | STIMULATION INDEX IL-4 [1] | IgE binding, ELISA [2]
1 | NARILKNCVDAKMTEEDKE [Fel 4, TRFP chain 1 amino acids 37-55] | 2.6 | 25.8 | 10.0 | 
2 | TRFP: human T cell reactive feline protein affinity purified from house dust; two covalently linked chains | 0.9 | 2.1 | 3.8 | high level of IgE binding
3 | recombinant chain 1: recombinant TRFP chain 1 expressed in E. coli |  |  |  | somewhat lower binding
